Test results as given in ChEMBL document CHEMBL1201862, “PubChem BioAssay data set” (2004).
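A five-concentration, 48-hour dose response in 96-well plates underlies each endpoint, interpolated linearly between surrounding concentrations. GI50: concentration for 50% inhibition of growth.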 Active and inactive are the calls of the source. Cut-off read from the data, not from the text of the source: active = GI50 up to about 1.1 µM and inactive = higher.

How the values were obtained:
Assay in all cases: DTP human tumour cell line panel, 48 h
NCI-H460 = tested on: NCI-H460
SK-MEL-5 = tested on: SK-MEL-5
HT-29 = tested on: HT-29
OVCAR-5 = tested on: OVCAR-5
SNB-19 = tested on: SNB-19
HOP-62 = tested on: HOP-62
COLO 205 = tested on: COLO 205
SK-MEL-2 = tested on: SK-MEL-2
MDA-MB-435 = tested on: MDA-MB-435
UACC-257 = tested on: UACC-257
PC-3 = tested on: PC-3
NCI-H226 = tested on: NCI-H226
U-251 = tested on: U-251
MDA-MB-231 = tested on: MDA-MB-231
HCC 2998 = tested on: HCC 2998
RXF 393 = tested on: RXF 393
EKVX = tested on: EKVX
A549 = tested on: A549
SW-620 = tested on: SW-620
BT-549 = tested on: BT-549

Row | SMILES | GI50 (NCI-H460) | GI50 (SK-MEL-5) | GI50 (HT-29) | GI50 (OVCAR-5) | GI50 (SNB-19) | GI50 (HOP-62) | GI50 (COLO 205) | GI50 (SK-MEL-2) | GI50 (MDA-MB-435) | GI50 (UACC-257) | GI50 (PC-3) | GI50 (NCI-H226) | GI50 (U-251) | GI50 (MDA-MB-231) | GI50 (HCC 2998) | GI50 (RXF 393) | GI50 (EKVX) | GI50 (A549) | GI50 (SW-620) | GI50 (BT-549)
1 | O=C(O)CCCSc1ccccc1 | > 100 µM (inactive) | > 100 µM (inactive) | > 100 µM (inactive) | > 100 µM (inactive) | > 100 µM (inactive) | > 100 µM (inactive) | > 100 µM (inactive) | > 100 µM (inactive) | > 100 µM (inactive) | > 100 µM (inactive) | > 100 µM (inactive) | > 100 µM (inactive) | > 100 µM (inactive) | > 100 µM (inactive) | > 100 µM (inactive) | > 100 µM (inactive) | > 100 µM (inactive) | > 100 µM (inactive) | > 100 µM (inactive) | > 100 µM (inactive)
2 | O=C1NC(=S)N/C1=C\c1cc2c(=O)c3ccccc3sc2s1 | 64 µM (inactive) | > 100 µM (inactive) | 55.1 µM (inactive) | > 100 µM (inactive) | 33.4 µM (inactive) | 32.5 µM (inactive) | 47.4 µM (inactive) | > 100 µM (inactive) | > 100 µM (inactive) | > 100 µM (inactive) | 72.1 µM (inactive) | > 100 µM (inactive) | 30.7 µM (inactive) | > 100 µM (inactive) | 71.1 µM (inactive) | 68.1 µM (inactive) | 3.51 µM (inactive) |  | 57.8 µM (inactive) | 35 µM (inactive)
3 | CC(C)CCC1(O)O[C@H]2C[C@H]3[C@@H]4CCC5CC(=O)C=C[C@]5(C)[C@H]4CC[C@]3(C)[C@H]2[C@@H]1C (some centres undefined) | 10.3 µM (inactive) | 13.7 µM (inactive) | 7.64 µM (inactive) | 13.1 µM (inactive) | 17.5 µM (inactive) | 15 µM (inactive) | 14.4 µM (inactive) | 15.2 µM (inactive) | 11.6 µM (inactive) | 15 µM (inactive) | 5.02 µM (inactive) | 0.612 µM (active) | 10.7 µM (inactive) | 14.5 µM (inactive) | 0.148 µM (active) | 11.8 µM (inactive) | 16.7 µM (inactive) | 14.7 µM (inactive) | 12.1 µM (inactive) | 14.3 µM (inactive)
4 | COc1ccccc1C(=O)c1ccc2ccccc2c1 | 15.2 µM (inactive) | 6.19 µM (inactive) | 16.7 µM (inactive) | 64.6 µM (inactive) | 19.5 µM (inactive) | 33.7 µM (inactive) | 20.4 µM (inactive) | 14.1 µM (inactive) | 3.47 µM (inactive) | 30.6 µM (inactive) | 23.8 µM (inactive) | 31.5 µM (inactive) | 13.3 µM (inactive) | 35.8 µM (inactive) | 51.8 µM (inactive) | 22.5 µM (inactive) | 16.5 µM (inactive) | 17.9 µM (inactive) | 8.3 µM (inactive) | 16.1 µM (inactive)
5 | C/C=C(\C)c1cc(=O)c2c(C)cc3c(c2o1)C(=O)c1c(O)c(C2CC(C)(N(C)C)C(OC(C)=O)C(C)O2)cc(C2CC(N(C)C)C(O)C(C)O2)c1C3=O (centres undefined) | 0.00982 µM (active) | 0.625 µM (active) | 0.324 µM (active) | 1.25 µM (inactive) | 1.52 µM (inactive) | 0.891 µM (active) | 0.621 µM (active) | 1.22 µM (inactive) | 1.03 µM (active) | 1.49 µM (inactive) | 1.35 µM (inactive) | 1.31 µM (inactive) | 0.49 µM (active) | 1.14 µM (inactive) | 0.0589 µM (active) | 0.505 µM (active) | 1.12 µM (active) | 0.41 µM (active) | 0.532 µM (active) | 1.07 µM (active)
6 | CCC(C#N)(c1ccccc1)N(CCc1ccccc1)C(=O)c1ccccc1 (centres undefined) |  | > 100 µM (inactive) | > 100 µM (inactive) | > 100 µM (inactive) | 28 µM (inactive) | 15.9 µM (inactive) | > 100 µM (inactive) | 67 µM (inactive) | > 100 µM (inactive) | > 100 µM (inactive) | > 100 µM (inactive) | 18.5 µM (inactive) | 30.3 µM (inactive) | 13.5 µM (inactive) | 54.7 µM (inactive) | 24.5 µM (inactive) | > 100 µM (inactive) | 77.1 µM (inactive) | > 100 µM (inactive) | 70.8 µM (inactive)
7 | CCCCCCCCCCCCCCCCCCNc1nc(=O)n(C2CC(O)C(COP(=O)(O)OCC(COP(=O)(O)OC3C(CO)OC(n4ccc(N)nc4=O)C3O)OCCCCCCCCCCCCCCCCCC)O2)cc1F (centres undefined) | 9.2 µM (inactive) | > 100 µM (inactive) | 79.1 µM (inactive) | 67.1 µM (inactive) | 14.9 µM (inactive) | 16.5 µM (inactive) | 16.7 µM (inactive) | > 100 µM (inactive) | > 100 µM (inactive) | 97.3 µM (inactive) | 13.2 µM (inactive) | > 100 µM (inactive) | 13.3 µM (inactive) | > 100 µM (inactive) | 14.1 µM (inactive) | 14.5 µM (inactive) | > 100 µM (inactive) | 14.5 µM (inactive) | > 100 µM (inactive) | 56.4 µM (inactive)
8 | N#Cc1c(=O)c2ccccc2n2c1[nH]c1ccccc12 | 37 µM (inactive) |  | 30.5 µM (inactive) | > 100 µM (inactive) | 42.5 µM (inactive) | > 100 µM (inactive) | 43.1 µM (inactive) | 47.3 µM (inactive) | 54 µM (inactive) | 86.1 µM (inactive) | 29 µM (inactive) | 34.9 µM (inactive) | 34.1 µM (inactive) | 54.6 µM (inactive) | 58.3 µM (inactive) | 4.44 µM (inactive) | 25 µM (inactive) | 58.1 µM (inactive) | 48.5 µM (inactive) | 58.3 µM (inactive)
9 | CSc1c(C#N)c(O)nc(N)c1C(=O)Nc1ccc(Cl)cc1 | 6.32 µM (inactive) | 10.4 µM (inactive) | 22.2 µM (inactive) | 33 µM (inactive) | 31.8 µM (inactive) | 16 µM (inactive) | 10.6 µM (inactive) | 6.25 µM (inactive) | 3.55 µM (inactive) | 6.78 µM (inactive) | 13.2 µM (inactive) | 28 µM (inactive) | 19.5 µM (inactive) | 15.6 µM (inactive) | 11.5 µM (inactive) | 23.6 µM (inactive) | 14.9 µM (inactive) | 13.4 µM (inactive) | 5.65 µM (inactive) | 24.5 µM (inactive)
10 | NC(=O)C1=C(O)C[C@@H]2CC3Cc4cccc(O)c4C(=O)C3=C(O)[C@]2(O)C1=O (some centres undefined) | 1.56 µM (inactive) | 1.36 µM (inactive) | 0.339 µM (active) | 0.449 µM (active) | 1.88 µM (inactive) | 3.31 µM (inactive) | 1.63 µM (inactive) | 1.86 µM (inactive) | 10.1 µM (inactive) | 3.07 µM (inactive) | 1.8 µM (inactive) | 2.23 µM (inactive) | 0.962 µM (active) | 2.78 µM (inactive) | 3.1 µM (inactive) | 1.51 µM (inactive) | 0.861 µM (active) | 0.592 µM (active) | 3.57 µM (inactive) | 1.87 µM (inactive)
11 | CC1(C)CCC2=C(O1)/C(=N\Nc1ccc(S(N)(=O)=O)cc1)c1ccccc1C2=O | 12 µM (inactive) | 1.81 µM (inactive) | 14.7 µM (inactive) | 18.1 µM (inactive) | 16.2 µM (inactive) | 7.8 µM (inactive) | 20.3 µM (inactive) | 11.9 µM (inactive) | 10.7 µM (inactive) | 9.55 µM (inactive) | 13.6 µM (inactive) | 4.99 µM (inactive) | 8.73 µM (inactive) | 2.56 µM (inactive) | 5.25 µM (inactive) | 5.37 µM (inactive) | 16.7 µM (inactive) | 14.6 µM (inactive) | 20.7 µM (inactive) | 13.1 µM (inactive)
12 | CCOc1ccccc1N1CSc2nnc(-c3ccccc3)n2C1 | > 100 µM (inactive) | > 100 µM (inactive) | 73.3 µM (inactive) | > 100 µM (inactive) |  | > 100 µM (inactive) | 68.1 µM (inactive) | > 100 µM (inactive) | > 100 µM (inactive) | > 100 µM (inactive) | > 100 µM (inactive) | > 100 µM (inactive) | > 100 µM (inactive) | > 100 µM (inactive) | > 100 µM (inactive) | > 100 µM (inactive) |  | > 100 µM (inactive) | 49 µM (inactive) | > 100 µM (inactive)
13 | Clc1cc2ncn(C3CCCO3)c2cc1Cl (centres undefined) |  | 43.3 µM (inactive) | 68.4 µM (inactive) | > 100 µM (inactive) | > 100 µM (inactive) | > 100 µM (inactive) | > 100 µM (inactive) | > 100 µM (inactive) | > 100 µM (inactive) | > 100 µM (inactive) | 48.2 µM (inactive) | 54.1 µM (inactive) | 69.7 µM (inactive) | > 100 µM (inactive) | 62.8 µM (inactive) | 81.3 µM (inactive) | 27.5 µM (inactive) | 75.9 µM (inactive) | 98.2 µM (inactive) | 19.5 µM (inactive)
14 | COC(=O)[C@H](Cc1ccccc1)NP(=O)(OCCC#N)OCC1OC(n2cc(C)c(=O)[nH]c2=O)CC1N=[N+]=[N-] (some centres undefined) | > 100 µM (inactive) | > 100 µM (inactive) | > 100 µM (inactive) | > 100 µM (inactive) | > 100 µM (inactive) | > 100 µM (inactive) | > 100 µM (inactive) | > 100 µM (inactive) | > 100 µM (inactive) | > 100 µM (inactive) | > 100 µM (inactive) | > 100 µM (inactive) | > 100 µM (inactive) | > 100 µM (inactive) | > 100 µM (inactive) | > 100 µM (inactive) | > 100 µM (inactive) | > 100 µM (inactive) | > 100 µM (inactive) | > 100 µM (inactive)
